Laboratory results published in PubChem BioAssay AID296 (DTP/NCI, 2004).
Values joined by “and” are separate entries in the source; they are usually repeats but may differ in a detail not shown here. Equal entries are not always repeated. Results filed as inconclusive are left out.

Test system: MX-1 breast xenograft, nude mice, tumor weight T/C
Test: NCI In Vivo Anticancer Drug Screen. Data for tumor model Human Mammary Carcinoma MX-1 Xenograft (intrarenal inoculation) in NU/NU Swiss (nude) mice
Conditions: endpoint: mean tumor weight change, higher = larger tumour
How it was run: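 Compound dosed to mice with transplantable tumor; vehicle group as control. Endpoint survival or tumour size, reported as T/C.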

[1] = dose: 1200.0 mg/kg/injection, schedule: Q04DX003 (sc), vehicle: Klucel (hydroxypropylcellulose) (HPC)
[2] = dose: 2400.0 mg/kg/injection, schedule: Q04DX003 (sc), vehicle: Klucel (hydroxypropylcellulose) (HPC)

Q: How did the T/C (dose: 6.0 mg/kg/injection, schedule: Q04DX003 (sc), vehicle: suspension in saline) turn out when `CCCNC1=C(C)C(=O)C2=C(C1=O)[C@H](COC(N)=O)[C@]1(OC)[C@@H]3N[C@@H]3CN21` was run?
A: 1 % of control

Q: What about the T/C (dose: 12.0 mg/kg/injection, schedule: Q04DX003 (sc), vehicle: suspension in saline) of the same compound?
A: -83 % of control

Q: For `C/C=C/C=C/c1cc2cc3c(c(O)c2c(=O)[nH]1)C1(CC3)C(O)=c2c(=O)c3c(=O)cc(OC)c(=O)c=3c(=O)c2=C1O` (stereo unspecified), which T/C (dose: 8.0 mg/kg/injection, schedule: Q01DX010 (sc), vehicle: DMSO) is on record?
A: 122 % of control

Q: And the T/C (dose: 16.0 mg/kg/injection, schedule: Q01DX010 (sc), vehicle: DMSO)?
A: 91 % of control

Q: For `O=NN(CCCl)C(=O)NC1CCCCC1`, which T/C (dose: 4.0 mg/kg/injection, schedule: Q01DX010 (sc), vehicle: saline with Tween-80) is on record?
A: 109 % of control

Q: What about the T/C (dose: 8.0 mg/kg/injection, schedule: Q04DX003 (sc), vehicle: Klucel (hydroxypropylcellulose) (HPC)) of the same compound?
A: 88 % of control and 92 % of control

Q: And the T/C (dose: 8.0 mg/kg/injection, schedule: Q04DX003 (sc), vehicle: carboxymethylcellulose (CMC))?
A: 89 % of control

Q: What about the T/C (dose: 12.5 mg/kg/injection, schedule: Q04DX003 (sc), vehicle: Klucel (hydroxypropylcellulose) (HPC)) of the same compound?
A: 59 % of control

Q: What about the T/C (dose: 16.0 mg/kg/injection, schedule: Q01DX010 (sc), vehicle: saline with Tween-80) of the same compound?
A: 28 % of control

Q: What about the T/C (dose: 16.0 mg/kg/injection, schedule: Q04DX003 (sc), vehicle: carboxymethylcellulose (CMC)) of the same compound?
A: 85 % of control

Q: And the T/C (dose: 25.0 mg/kg/injection, schedule: Q04DX003 (sc), vehicle: Klucel (hydroxypropylcellulose) (HPC))?
A: 92 % of control and 213 % of control

Q: What about the T/C (dose: 32.0 mg/kg/injection, schedule: Q04DX003 (sc), vehicle: carboxymethylcellulose (CMC)) of the same compound?
A: 77 % of control

Q: And the T/C (dose: 64.0 mg/kg/injection, schedule: Q04DX003 (sc), vehicle: Klucel (hydroxypropylcellulose) (HPC))?
A: -95 % of control

Q: What about the T/C (dose: 64.0 mg/kg/injection, schedule: Q04DX003 (sc), vehicle: carboxymethylcellulose (CMC)) of the same compound?
A: 29 % of control

Q: What does the source list for `CCOC(=O)C1(c2ccccc2)C(=O)Oc2ccccc21` (stereo unspecified)?
A: T/C (dose: 300.0 mg/kg/injection, schedule: Q04DX003 (sc), vehicle: saline with Tween-80): 99 % of control; T/C (dose: 600.0 mg/kg/injection, schedule: Q04DX003 (sc), vehicle: saline with Tween-80): 103 % of control; T/C (dose: 1200.0 mg/kg/injection, schedule: Q04DX003 (sc), vehicle: saline with Tween-80): 101 % of control; T/C (dose: 2400.0 mg/kg/injection, schedule: Q04DX003 (sc), vehicle: saline with Tween-80): 99 % of control

Q: Which results are given for `O=C1CN(CN2CCOCC2)C(=O)CN1CN1CCOCC1`?
A: T/C (dose: 25.0 mg/kg/injection, schedule: Q01DX010 (sc), vehicle: suspension in saline): 117 % of control; T/C (dose: 50.0 mg/kg/injection, schedule: Q01DX010 (sc), vehicle: suspension in saline): 119 % of control; T/C (dose: 100.0 mg/kg/injection, schedule: Q01DX010 (sc), vehicle: suspension in saline): 161 % of control; T/C (dose: 200.0 mg/kg/injection, schedule: Q01DX010 (sc), vehicle: suspension in saline): 87 % of control

Q: What does the source list for `CN(C1=NS(=O)(=O)N=C(N(C)c2ccccc2)O1)c1ccccc1`?
A: T/C (dose: 300.0 mg/kg/injection, schedule: Q04DX003 (sc), vehicle: Klucel (hydroxypropylcellulose) (HPC)): 102 % of control; T/C (dose: 600.0 mg/kg/injection, schedule: Q04DX003 (sc), vehicle: Klucel (hydroxypropylcellulose) (HPC)): 110 % of control; T/C [1]: 113 % of control; T/C [2]: 106 % of control

Q: For `COP12(OCCO1)SC(C(F)(F)F)=C(C(F)(F)F)S2`, which T/C (dose: 125.0 mg/kg/injection, schedule: Q04DX003 (sc), vehicle: saline with Tween-80) is on record?
A: 119 % of control

Q: What about the T/C (dose: 250.0 mg/kg/injection, schedule: Q04DX003 (sc), vehicle: saline with Tween-80) of the same compound?
A: 92 % of control

Q: `CC[C@@]1(O)C[C@H](OC2CC(N(C)C)C(OC3CC(O)C(OC4CCC(=O)C(C)O4)C(C)O3)C(C)O2)c2c(cc3c(c2O)C(=O)c2c(O)cccc2C3=O)[C@H]1C(=O)OC` (stereo partly specified) was tested. Which T/C (dose: 0.25 mg/kg/injection, schedule: Q01DX010 (sc), vehicle: water) did it give?
A: 91 % of control

Q: And the T/C (dose: 0.5 mg/kg/injection, schedule: Q01DX010 (ip), vehicle: water)?
A: 74 % of control and 78 % of control

Q: What about the T/C (dose: 0.5 mg/kg/injection, schedule: Q01DX010 (sc), vehicle: water) of the same compound?
A: 113 % of control

Q: And the T/C (dose: 1.0 mg/kg/injection, schedule: Q01DX010 (sc), vehicle: water)?
A: 35 % of control

Q: And the T/C (dose: 2.0 mg/kg/injection, schedule: Q01DX010 (ip), vehicle: water)?
A: 7 % of control

Q: And the T/C (dose: 4.0 mg/kg/injection, schedule: Q01DX010 (sc), vehicle: water)?
A: 65 % of control

Q: `[I][Hg][CH2]C1OCCOC1[CH2][Hg][I]` (stereo unspecified) was tested. Which T/C [1] did it give?
A: 77 % of control

Q: What about the T/C [2] of the same compound?
A: 98 % of control
